Test results: article PMC2991053 (Chemistry & biology, 2010)
Read-outs that look alike come from different tables or passages of the source.

Experiments:
[1] = target: TfIMPDH (Tritrichomonas foetus, UniProt P50097); conditions: cited from earlier work; for Ki: TfIMPDH, ref Riera, et al., 2008
[2] = target: EcIMPDH-S250A (Escherichia coli, UniProt P0ADG7, S250A); experiment: biochemical
[3] = target: EcIMPDH-S250A/L444Y (Escherichia coli, UniProt P0ADG7, L444Y/S250A); experiment: biochemical
[4] = target: SpIMPDH (Streptococcus pyogenes, UniProt P0C0H6); experiment: biochemical
[5] = target: T1, CpIMPDH (Cryptosporidium parvum, UniProt Q8T6T2); conditions: cited from earlier work
T1 sequence (Q8T6T2 1-400): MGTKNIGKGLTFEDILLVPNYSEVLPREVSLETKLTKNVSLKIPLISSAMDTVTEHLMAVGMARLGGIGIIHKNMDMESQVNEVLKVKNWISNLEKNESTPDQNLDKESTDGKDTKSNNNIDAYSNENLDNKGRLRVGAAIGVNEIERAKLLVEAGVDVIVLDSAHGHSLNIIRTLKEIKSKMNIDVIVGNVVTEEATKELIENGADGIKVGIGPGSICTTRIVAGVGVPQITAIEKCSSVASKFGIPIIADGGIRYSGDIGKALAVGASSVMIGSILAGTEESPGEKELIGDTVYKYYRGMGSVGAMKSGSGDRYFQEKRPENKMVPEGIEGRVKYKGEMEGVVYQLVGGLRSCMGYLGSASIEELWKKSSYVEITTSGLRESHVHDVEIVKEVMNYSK

[6] = target: EcIMPDH (Escherichia coli, UniProt P0ADG7); experiment: IMPDH inhibition, E. coli enzyme; type: biochemical
[7] = target: LdIMPDH (Leishmania donovani, UniProt P21620); experiment: IMPDH inhibition, L. donovani enzyme; type: biochemical
[8] = target: T2, HpIMPDH (Helicobacter pylori, UniProt P56088); experiment: IMPDH inhibition, H. pylori enzyme; type: biochemical
T2 sequence (P56088 1-481): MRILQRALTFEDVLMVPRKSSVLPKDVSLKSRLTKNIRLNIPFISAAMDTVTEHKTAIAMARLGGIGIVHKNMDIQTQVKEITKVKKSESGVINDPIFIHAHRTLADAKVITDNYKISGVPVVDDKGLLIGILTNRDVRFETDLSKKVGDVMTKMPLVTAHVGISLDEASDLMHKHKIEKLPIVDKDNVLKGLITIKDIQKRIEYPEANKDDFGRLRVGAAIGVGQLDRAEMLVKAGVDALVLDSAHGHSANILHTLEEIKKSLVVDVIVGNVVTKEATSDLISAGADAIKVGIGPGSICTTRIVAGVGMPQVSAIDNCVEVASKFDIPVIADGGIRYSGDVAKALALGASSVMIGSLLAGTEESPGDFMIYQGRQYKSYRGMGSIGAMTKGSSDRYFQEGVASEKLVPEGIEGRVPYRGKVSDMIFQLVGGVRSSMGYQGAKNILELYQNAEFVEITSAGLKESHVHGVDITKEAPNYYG

[9] = target: T3, BbIMPDH (Borreliella burgdorferi, UniProt P49058); experiment: IMPDH inhibition, B. burgdorferi enzyme; type: biochemical
T3 sequence (P49058 1-404): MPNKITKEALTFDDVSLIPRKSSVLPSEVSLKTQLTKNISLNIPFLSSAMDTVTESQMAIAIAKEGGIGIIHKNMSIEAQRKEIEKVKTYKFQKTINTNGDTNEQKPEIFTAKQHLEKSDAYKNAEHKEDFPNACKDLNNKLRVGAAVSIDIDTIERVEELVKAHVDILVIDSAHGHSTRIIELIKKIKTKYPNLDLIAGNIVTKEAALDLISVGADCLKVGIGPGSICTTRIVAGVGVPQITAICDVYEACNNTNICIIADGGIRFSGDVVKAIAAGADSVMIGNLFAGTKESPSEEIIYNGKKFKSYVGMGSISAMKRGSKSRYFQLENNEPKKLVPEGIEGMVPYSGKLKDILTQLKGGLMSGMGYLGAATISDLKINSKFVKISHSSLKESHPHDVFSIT

Chain of TfIMPDH (P50097 whole entry): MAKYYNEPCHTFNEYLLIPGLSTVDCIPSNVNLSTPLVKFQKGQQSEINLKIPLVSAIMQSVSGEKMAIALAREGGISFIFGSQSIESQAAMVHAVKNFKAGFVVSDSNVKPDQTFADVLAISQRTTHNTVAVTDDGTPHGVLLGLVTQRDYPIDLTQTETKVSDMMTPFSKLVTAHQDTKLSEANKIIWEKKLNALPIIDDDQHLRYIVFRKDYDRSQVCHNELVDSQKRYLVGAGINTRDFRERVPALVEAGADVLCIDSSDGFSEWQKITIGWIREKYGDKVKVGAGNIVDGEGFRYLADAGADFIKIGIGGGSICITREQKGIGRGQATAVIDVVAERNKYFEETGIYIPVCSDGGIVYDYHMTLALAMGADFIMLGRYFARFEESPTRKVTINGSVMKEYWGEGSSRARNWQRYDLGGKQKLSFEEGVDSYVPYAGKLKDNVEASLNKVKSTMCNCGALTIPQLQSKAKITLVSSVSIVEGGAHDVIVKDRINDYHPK
Chain of SpIMPDH (P0C0H6 whole entry): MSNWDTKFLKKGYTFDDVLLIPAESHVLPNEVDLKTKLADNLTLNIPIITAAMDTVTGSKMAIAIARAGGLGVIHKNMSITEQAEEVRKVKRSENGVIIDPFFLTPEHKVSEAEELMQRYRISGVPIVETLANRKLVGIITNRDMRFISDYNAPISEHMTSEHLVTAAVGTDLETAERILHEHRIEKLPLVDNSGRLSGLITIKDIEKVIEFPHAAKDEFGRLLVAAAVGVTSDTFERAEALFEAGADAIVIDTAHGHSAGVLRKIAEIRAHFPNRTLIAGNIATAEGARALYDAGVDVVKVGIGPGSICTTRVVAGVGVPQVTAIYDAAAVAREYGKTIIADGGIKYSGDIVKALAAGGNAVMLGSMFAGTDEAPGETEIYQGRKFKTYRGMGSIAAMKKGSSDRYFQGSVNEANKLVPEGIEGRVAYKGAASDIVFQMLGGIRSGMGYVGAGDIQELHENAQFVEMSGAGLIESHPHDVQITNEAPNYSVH
Chain of EcIMPDH-S250A (P0ADG7 whole entry S250A): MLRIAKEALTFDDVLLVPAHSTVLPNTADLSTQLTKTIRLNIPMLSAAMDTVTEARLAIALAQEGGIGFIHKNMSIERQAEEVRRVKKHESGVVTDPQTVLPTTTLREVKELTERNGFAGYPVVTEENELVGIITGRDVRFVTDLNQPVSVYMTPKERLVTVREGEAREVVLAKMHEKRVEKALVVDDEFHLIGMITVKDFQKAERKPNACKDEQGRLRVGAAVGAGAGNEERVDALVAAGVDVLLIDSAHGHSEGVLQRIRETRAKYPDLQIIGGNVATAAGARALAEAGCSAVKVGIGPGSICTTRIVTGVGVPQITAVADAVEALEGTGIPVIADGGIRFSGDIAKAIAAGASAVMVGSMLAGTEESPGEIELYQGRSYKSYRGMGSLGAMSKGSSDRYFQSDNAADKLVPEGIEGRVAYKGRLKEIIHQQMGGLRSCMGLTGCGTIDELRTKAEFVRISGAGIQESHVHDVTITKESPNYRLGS
Chain of EcIMPDH (P0ADG7 whole entry): as the sequence (P0ADG7 whole entry S250A) above, with A250S counted along it
Chain of EcIMPDH-S250A/L444Y (P0ADG7 whole entry S250A/L444Y): as the sequence (P0ADG7 whole entry S250A) above, with L444Y counted along it
Chain of LdIMPDH (P21620 whole entry): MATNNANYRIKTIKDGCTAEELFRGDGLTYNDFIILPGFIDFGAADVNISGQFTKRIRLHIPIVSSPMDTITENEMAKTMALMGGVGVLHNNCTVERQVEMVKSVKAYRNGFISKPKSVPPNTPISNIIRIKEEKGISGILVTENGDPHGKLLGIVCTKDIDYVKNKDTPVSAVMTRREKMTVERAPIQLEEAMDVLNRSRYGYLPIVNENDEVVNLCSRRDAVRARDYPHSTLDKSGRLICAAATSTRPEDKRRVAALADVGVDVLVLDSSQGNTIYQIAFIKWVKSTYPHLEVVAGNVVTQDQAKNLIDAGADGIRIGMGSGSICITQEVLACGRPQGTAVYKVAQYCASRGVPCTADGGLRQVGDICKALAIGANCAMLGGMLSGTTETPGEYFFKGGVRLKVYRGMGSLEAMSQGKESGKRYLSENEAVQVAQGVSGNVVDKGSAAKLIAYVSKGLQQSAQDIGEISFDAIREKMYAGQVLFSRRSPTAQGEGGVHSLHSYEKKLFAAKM

COc1c(C)c2c(c(O)c1C/C=C(\C)CCC(=O)O)C(=O)OC2 [mycophenolic acid]
Fold more resistant than human IMPDH2 (TfIMPDH) ([1]; TfIMPDH vs human IMPDH2, ref Digits and Hedstrom, 2000): 400 fold

NC(=O)c1csc([C@@H]2O[C@H](CO)[C@@H](O)[C@H]2O)n1 [Tzf, tiazofurin]
Ki [2]: 2.5 ± 0.3 mM
Ki ([1]; read-out: Ki Tzf): 69 ± 9 mM
Ki [3]: 1.1 ± 0.2 mM
Ki [4]: 8 ± 1 mM
Ki ([5]; read-out: Ki Tzf, ref Riera, et al., 2008): 1.5 ± 0.1 mM
Ki [6]: 5.3 ± 0.6 mM
Ki [7]: 8.3 ± 0.7 mM
Ki [8]: 1.3 ± 0.1 mM
Ki [9]: 1.1 ± 0.2 mM

Nc1ncnc2c1ncn2[C@@H]1O[C@H](COP(=O)(O)OP(=O)(O)O)[C@@H](O)[C@H]1O [ADP]
Ki ([2]; read-out: Ki ADP, EcIMPDH-S250A): 0.1 ± 0.01 mM
Ki ([1]; read-out: Ki ADP): 31 ± 2 mM
Ki ([3]; read-out: Ki ADP, EcIMPDH-S250A/L444Y): 4.1 ± 0.7 mM
Ki ([4]; read-out: Ki ADP, SpIMPDH): 13 ± 2 mM
Ki ([5]; read-out: Ki ADP, ref Riera, et al., 2008): 42 ± 6 mM
Ki ([6]; read-out: Ki ADP, EcIMPDH): 10 ± 2 mM
Ki ([7]; read-out: Ki ADP, LdIMPDH): 15 ± 2 mM
Ki ([8]; read-out: Ki ADP, HpIMPDH): 6 ± 0.5 mM
Ki ([9]; read-out: Ki ADP, BbIMPDH): 7.4 ± 0.6 mM
